Data set [1] has as its system 4T1-Luc2 breast cancer cells. The data set is described as follows: Survival after resection of orthotopic 4T1-Luc2 tumors with a loaded hydrogel implanted at the resection site. In kind it is in vivo, female BALB/cJ mice. Particulars: crosslinked hyaluronic acid hydrogel loaded with the agent placed in tumor resection site on day 10 post-tumor inoculation; extended local release; versus empty hydrogel. The method, then: The hydrogels for FIG. 1 were prepared according to the methods described for hydrogel 1 in Table 1. 120 μL of a hyaluronic acid solution (2.0% w/v GLYCOSIL) was pipetted into a mold. One mg of a p38 MAPK inhibitor (e.g., losmapimod (Selleckchem)) was dissolved in 10 μL DMSO, and this solution was added to the hyaluronic acid solution in the mold. Following mixing to create a homogeneous distribution of the payload, 30 μL of a PEG-diacrylate crosslinker solution (12.5% w/v EXTRALINK) was pipetted into the mold. The crosslinked hydrogel solidified in the mold over the course of a few minutes. Female BALB/cJ mice were inoculated orthotopically with 4T1-Luc2 breast cancer cells in their fourth mammary fat pad. On day 10 post-tumor inoculation, tumors (˜100 mm^3) were resected, and a hydrogel (e.g., a crosslinked hyaluronic acid hydrogel) loaded with a p38 MAPK inhibitor (e.g., losmapimod) was placed in the tumor resection site. Empty hydrogel was used as a negative control.
The hydrogels for FIG. 2 were prepared according to the methods described for hydrogel 1 in Table 1. 120 μL of a hyaluronic acid solution (2.0% w/v GLYCOSIL) was pipetted into a mold. Five hundred μg (40 μL) of an anti-IL-1β antibody (e.g., clone B122 (BioXCell)) was added to the hyaluronic acid solution in the mold. […]

For data set [2] the following is noted: cited from earlier work.
Data set [3] addresses T1, TLR8 (Homo sapiens, UniProt Q9NR97).
T1 construct: expressed in transfected cells; host or cells: HEK293
T1 sequence (Q9NR97 27-1041): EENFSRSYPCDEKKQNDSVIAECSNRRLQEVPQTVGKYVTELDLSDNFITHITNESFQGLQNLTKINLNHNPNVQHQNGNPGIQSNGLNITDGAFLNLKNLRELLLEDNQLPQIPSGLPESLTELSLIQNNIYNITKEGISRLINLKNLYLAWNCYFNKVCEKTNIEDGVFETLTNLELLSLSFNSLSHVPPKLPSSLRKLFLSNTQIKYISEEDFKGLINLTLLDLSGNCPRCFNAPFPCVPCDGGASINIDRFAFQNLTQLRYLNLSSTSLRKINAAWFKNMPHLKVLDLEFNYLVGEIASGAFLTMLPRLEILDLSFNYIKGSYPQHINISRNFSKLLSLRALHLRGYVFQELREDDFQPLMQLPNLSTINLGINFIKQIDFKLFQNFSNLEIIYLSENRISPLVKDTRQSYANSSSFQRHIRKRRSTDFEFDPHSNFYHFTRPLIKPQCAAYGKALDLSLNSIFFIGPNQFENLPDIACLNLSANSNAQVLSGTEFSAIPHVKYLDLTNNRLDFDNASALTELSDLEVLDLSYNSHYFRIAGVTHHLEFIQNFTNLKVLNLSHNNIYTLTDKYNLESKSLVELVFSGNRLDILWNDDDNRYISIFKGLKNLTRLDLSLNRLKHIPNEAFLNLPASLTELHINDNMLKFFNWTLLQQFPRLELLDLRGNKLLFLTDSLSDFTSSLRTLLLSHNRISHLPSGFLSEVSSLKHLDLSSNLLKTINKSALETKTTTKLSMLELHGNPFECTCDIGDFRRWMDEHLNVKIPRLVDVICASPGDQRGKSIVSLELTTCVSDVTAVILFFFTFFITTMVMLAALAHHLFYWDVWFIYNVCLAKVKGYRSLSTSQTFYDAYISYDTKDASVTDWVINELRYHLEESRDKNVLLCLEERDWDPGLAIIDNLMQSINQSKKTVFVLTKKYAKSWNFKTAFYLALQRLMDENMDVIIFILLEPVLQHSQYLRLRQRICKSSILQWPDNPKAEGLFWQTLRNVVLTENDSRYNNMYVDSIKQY
Conditions: even at high concentrations (>10 μg/ml); cited from earlier work.

Data set [4] has as its target T2, TLR7 (Homo sapiens, UniProt Q9NYK1).
T2 construct: expressed in transfected cells; host or cells: HEK293
T2 sequence (Q9NYK1 27-1049): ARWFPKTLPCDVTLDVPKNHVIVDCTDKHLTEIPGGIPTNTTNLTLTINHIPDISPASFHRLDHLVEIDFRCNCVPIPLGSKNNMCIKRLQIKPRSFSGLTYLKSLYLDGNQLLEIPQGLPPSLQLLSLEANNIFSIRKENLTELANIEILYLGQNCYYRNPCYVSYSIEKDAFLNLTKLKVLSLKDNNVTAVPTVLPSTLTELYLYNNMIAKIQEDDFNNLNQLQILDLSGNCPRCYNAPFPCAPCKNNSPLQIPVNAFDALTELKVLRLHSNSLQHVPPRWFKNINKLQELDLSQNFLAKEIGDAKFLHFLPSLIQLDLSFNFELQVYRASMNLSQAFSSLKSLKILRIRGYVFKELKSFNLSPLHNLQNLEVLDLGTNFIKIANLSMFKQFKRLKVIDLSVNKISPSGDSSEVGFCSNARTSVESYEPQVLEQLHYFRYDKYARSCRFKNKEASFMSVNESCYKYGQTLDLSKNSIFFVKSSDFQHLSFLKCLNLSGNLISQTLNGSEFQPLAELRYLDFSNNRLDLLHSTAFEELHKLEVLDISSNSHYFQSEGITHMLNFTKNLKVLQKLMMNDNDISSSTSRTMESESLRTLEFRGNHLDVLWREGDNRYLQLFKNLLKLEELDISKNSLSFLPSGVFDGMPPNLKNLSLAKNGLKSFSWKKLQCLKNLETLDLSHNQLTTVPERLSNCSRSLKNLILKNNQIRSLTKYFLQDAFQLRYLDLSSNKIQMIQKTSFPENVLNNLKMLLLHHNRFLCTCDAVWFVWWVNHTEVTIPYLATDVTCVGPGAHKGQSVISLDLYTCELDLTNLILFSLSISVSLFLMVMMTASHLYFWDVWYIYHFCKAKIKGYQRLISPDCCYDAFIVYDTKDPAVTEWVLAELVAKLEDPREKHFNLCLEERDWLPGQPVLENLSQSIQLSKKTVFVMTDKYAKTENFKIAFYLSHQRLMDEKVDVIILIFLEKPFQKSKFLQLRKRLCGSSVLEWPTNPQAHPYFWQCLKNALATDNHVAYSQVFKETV
Particulars: TLR7-transfected HEK293 cells, cited from earlier work.

In data set [5] the target is T1, TLR8. Particulars: TLR8-transfected HEK293 cells, cited from earlier work.
The target in data set [6] is T2, TLR7. Conditions: concentrations as low as; cited from earlier work.

Several values for one entry are separate records, joined by “and”; a condition that tells them apart may be missing. Equal entries are not always repeated.

Take `Cc1c(F)cc(C(=O)NC2CC2)cc1-c1ccc(C(=O)NCC(C)(C)C)cn1` [losmapimod]: in data set [1], the “survival (Kaplan-Meier)” value is “Prolonged survival benefit”. As to `CCOCc1nc2c(N)nc3ccccc3c2[nH]1` [CL097], the water solubility in data set [2] was no less than 20 mg/mL. As for `CCCCNc1nc(N)c2nc(O)n(Cc3ccc(C(=O)NCC(=O)O)cc3)c2n1` [CL264], the TLR8 stimulation entry in data set [3] is reported as “does not stimulate TLR8”. The “concentration inducing NF-κB activation” value in data set [4] is 0.1 µM. The “concentration triggering NF-κB activation, times less than imiquimod” value in data set [4] (relative to imiquimod) is listed as 5-10 times.

`CCOC(=O)C1=Cc2ccc(-c3cccc(C#N)c3)cc2N=C(N)C1` [TL8-506]: in data set [5] (more potent than CL075), the “potency in inducing NF-κB activation relative to CL075” value is recorded as roughly 25 ×. The “potency in inducing NF-κB activation relative to R848” value in data set [5] (more potent than R848) was roughly 50 ×.

As for `CCCCNc1nc(N)c2nc(O)n(Cc3ccc(C(=O)NCC(=O)NCCCNCCCCNCCCN)cc3)c2n1` [CL307, N1-glycinyl[4-((6-amino-2-(butylamino)-8-hydroxy-9H-purin-9-yl)methyl)benzoyl] spermine], the “concentration inducing robust NF-κB activation” value in data set [6] was 20 nM and 10 ng/ml.

The record behind these values is patent US20210008048A1, “COMPOSITIONS AND METHODS FOR CANCER TREATMENT” (Dana-Farber Cancer Institute, Inc., priority 2018, published 2021).
